Common to all, as to assay: SelectScreen Kinase Profiling, single point inhibition and IC50 for off-target kinases
Type in all cases: biochemical

In experiment [1] the target is off-target kinases (Homo sapiens, UniProt Q9Y572). The conditions noted are these: RIPK3, LanthaScreen Binding. In general terms: TR-FRET usually uses a lanthanide donor and a delayed reading to cut background.
Experiment [2] has as its target off-target kinases (Homo sapiens, UniProt P42345). The conditions noted are these: FRAP1 (mTOR), ZLYTE, ATP Km app.
Experiment [3] deals with off-target kinases (Homo sapiens, UniProt P00519, T315I). The conditions noted are these: ABL1 T315I, mutant y, ZLYTE, ATP Km app.
In experiment [4] the target is T1, off-target kinases (Homo sapiens, UniProt Q96BR1).
T1 sequence (Q96BR1 1-496): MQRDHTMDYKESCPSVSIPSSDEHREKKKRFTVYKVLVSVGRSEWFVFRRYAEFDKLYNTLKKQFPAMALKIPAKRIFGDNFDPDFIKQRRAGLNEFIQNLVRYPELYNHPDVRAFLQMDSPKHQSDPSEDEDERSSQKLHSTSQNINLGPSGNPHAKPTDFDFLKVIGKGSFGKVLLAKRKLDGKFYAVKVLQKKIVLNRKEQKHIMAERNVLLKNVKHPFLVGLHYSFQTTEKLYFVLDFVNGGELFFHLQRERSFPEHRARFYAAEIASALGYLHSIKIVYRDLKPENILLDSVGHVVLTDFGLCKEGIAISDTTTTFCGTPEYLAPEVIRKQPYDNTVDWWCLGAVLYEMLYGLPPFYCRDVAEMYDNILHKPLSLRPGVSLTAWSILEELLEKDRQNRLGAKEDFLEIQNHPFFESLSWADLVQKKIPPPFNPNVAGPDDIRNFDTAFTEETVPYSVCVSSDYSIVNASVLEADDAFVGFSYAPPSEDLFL
The conditions noted are these: SGKL (SGK3), ZLYTE, ATP Km app.

For experiment [5], the target named is T2, off-target kinases (Homo sapiens, UniProt O14920).
T2 sequence (O14920 1-756): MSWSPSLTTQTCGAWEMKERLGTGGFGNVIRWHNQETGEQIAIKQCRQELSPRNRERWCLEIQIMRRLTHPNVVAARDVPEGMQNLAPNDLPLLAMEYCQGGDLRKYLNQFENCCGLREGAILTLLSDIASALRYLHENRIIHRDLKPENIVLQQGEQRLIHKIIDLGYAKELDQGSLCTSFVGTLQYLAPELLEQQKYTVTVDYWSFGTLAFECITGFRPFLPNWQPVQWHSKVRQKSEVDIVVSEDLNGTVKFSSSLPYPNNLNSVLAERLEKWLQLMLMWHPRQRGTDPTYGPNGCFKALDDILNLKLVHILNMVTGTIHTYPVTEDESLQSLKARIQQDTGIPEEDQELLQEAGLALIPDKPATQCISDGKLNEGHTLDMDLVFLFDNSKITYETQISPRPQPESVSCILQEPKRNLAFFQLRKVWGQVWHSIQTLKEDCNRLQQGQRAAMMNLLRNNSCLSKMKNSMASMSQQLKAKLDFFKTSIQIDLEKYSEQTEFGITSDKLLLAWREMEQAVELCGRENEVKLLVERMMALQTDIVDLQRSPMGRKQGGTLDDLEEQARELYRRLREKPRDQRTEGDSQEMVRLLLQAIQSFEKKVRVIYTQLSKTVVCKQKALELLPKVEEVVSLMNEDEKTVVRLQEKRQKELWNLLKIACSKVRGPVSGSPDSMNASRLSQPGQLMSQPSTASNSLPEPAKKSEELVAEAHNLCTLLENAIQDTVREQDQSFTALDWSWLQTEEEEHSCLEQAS
To be noted: IKBKB (IKK beta), ATP Km app, ZLYTE.

In experiment [6] the target is off-target kinases (Homo sapiens, UniProt P07949, Y791F). To be noted: RET Y791F, ATP Km app, ZLYTE.
off-target kinases (Homo sapiens, UniProt P07949, Y791F), sequence (P07949 29-1114 Y791F): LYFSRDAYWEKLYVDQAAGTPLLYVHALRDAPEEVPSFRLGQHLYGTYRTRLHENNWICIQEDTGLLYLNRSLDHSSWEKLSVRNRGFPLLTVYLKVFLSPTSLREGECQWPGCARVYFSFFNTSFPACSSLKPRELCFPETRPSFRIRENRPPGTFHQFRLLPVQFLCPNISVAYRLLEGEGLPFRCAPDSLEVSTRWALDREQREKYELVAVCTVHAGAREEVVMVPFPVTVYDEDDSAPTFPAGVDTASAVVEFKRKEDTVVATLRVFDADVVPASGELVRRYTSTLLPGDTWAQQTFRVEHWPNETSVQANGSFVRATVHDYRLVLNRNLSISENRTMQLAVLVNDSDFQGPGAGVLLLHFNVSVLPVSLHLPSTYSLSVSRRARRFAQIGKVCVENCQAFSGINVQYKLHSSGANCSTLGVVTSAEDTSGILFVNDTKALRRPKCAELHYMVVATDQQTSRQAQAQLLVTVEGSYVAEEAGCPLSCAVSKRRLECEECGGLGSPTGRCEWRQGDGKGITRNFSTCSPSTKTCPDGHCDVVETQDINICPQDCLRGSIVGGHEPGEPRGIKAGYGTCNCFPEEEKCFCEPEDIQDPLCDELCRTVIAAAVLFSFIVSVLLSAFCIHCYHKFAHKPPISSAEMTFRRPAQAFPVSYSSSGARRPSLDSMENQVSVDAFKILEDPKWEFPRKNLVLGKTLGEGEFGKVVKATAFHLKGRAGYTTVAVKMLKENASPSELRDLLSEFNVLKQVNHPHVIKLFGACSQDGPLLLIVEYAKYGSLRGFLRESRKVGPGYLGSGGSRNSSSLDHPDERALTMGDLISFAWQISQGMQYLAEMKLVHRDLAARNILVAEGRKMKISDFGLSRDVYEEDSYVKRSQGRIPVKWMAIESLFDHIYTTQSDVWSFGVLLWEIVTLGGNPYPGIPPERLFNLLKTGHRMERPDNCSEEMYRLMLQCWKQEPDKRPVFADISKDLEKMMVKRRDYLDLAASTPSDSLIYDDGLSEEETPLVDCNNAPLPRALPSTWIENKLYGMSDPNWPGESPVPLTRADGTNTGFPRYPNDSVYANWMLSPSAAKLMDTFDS

SMILES strings stand for the structures. Where two headings read alike, the source gives them in different places.

off-target kinases (Homo sapiens, UniProt Q9Y572), sequence (Q9Y572 whole entry): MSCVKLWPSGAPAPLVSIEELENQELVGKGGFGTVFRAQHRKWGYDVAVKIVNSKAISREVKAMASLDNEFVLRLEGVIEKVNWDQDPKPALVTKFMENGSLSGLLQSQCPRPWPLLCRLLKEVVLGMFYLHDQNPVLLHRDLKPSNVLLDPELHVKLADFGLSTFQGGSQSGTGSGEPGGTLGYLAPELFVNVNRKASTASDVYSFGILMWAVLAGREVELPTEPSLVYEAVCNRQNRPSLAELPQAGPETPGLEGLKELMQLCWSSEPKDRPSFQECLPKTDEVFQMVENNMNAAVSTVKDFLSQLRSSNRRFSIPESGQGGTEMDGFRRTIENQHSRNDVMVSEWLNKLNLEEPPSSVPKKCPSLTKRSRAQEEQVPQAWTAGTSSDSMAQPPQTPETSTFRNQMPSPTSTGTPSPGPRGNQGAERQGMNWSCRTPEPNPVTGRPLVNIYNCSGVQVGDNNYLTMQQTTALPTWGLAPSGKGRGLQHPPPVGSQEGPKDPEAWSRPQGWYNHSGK

For orientation: inhibition means the change of the read-out against control, counted positive when it falls. `N#Cc1cc(-c2ncnc(Nc3ccc(N4CCN(C5COC5)CC4)cc3)n2)ccc1OC1CCOCC1` [Compound 1, 5-(4-((4-(4-(oxetan-3-yl)piperazin-1-yl)phenyl)amino)-1,3,5-triazin-2-yl)-2-((tetrahydro-2H-pyran-4-yl)oxy)benzonitrile]: the inhibition on off-target kinases [1] (read-out: % Inhibition 1) is -1%; on off-target kinases [1] (read-out: % Inhibition 2) it was 1%; at off-target kinases [1] (read-out: % Inhibition Avg), 0%; at off-target kinases [2] (read-out: % Inhibition 1), 2%; on off-target kinases [2] (read-out: % Inhibition 2) it was 12%; at off-target kinases [2] (read-out: % Inhibition Avg), 7%. In addition, the inhibition on off-target kinases [3] (read-out: % Inhibition 1) was determined as 30%; on off-target kinases [3] (read-out: % Inhibition 2), 29%; at off-target kinases [3] (read-out: % Inhibition Avg) it was 29%; on off-target kinases [4] (read-out: % Inhibition 1), 3%; on off-target kinases [4] (read-out: % Inhibition 2), 4%; on off-target kinases [4] (read-out: % Inhibition Avg), 3%. Further, the inhibition on off-target kinases [5] (read-out: % Inhibition 1) was 52%; at off-target kinases [5] (read-out: % Inhibition 2) it was 39%; at off-target kinases [5] (read-out: % Inhibition Avg) it was 45%; at off-target kinases [6] (read-out: % Inhibition 1) it was 57%; at off-target kinases [6] (read-out: % Inhibition 2) it was 43%; at off-target kinases [6] (read-out: % Inhibition Avg), 50%.

The values are drawn from patent US11572590B2, “Methods for evaluating tumor cell spheroids using 3D microfluidic cell culture device” (Dana-Farber Cancer Institute, Inc., priority 2017, dated 2023).
